Test results from PubChem BioAssay AID463074 (Broad Institute, 2010).
The source made the active and inactive calls.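 How the source made its calls: active means AC50 no more than tenfold above the top dose tested, or full inhibition at every dose with a flat fit (cut at about 19 µM in these data); inconclusive means flat curve fit with inhibition between 30% and 70%, or poor fit; inactive means AC50 more than tenfold above the top dose tested.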

Tested on: HMLE_sh_eGFP viability, CellTiter-Glo luminescence, 72 h
Assay: viability loss of HMLE_sh_eGFP cells – cell-based, luminescence, counter-screen for HMLE_sh_ECad selective toxicity project, dose response (AID 463074);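 further: counterscreen control line to flag general toxicity for the HMLE_sh_ECad screen; potency for loss of viability as luminescence drops below DMSO wells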

| SMILES | AC50 |
| --- | --- |
| Cc1ccc(C(C)C)c(OCc2ccc(C(=O)N/N=C/c3ccc(O)c(O)c3)cc2)c1 | 4.66 µM |
| Cc1ccc(S(=O)(=O)Nc2ccc3c(c2)CC(=O)N([C@H](C)CO)C[C@@H](C)[C@H](CN(C)Cc2ccc(-c4ccccc4)cc2)O3)cc1 | 2.29 µM |
| CC(C)(c1ccccc1)c1ccc(OCCN2CCCC2)cc1 | 0.903 µM |
| O=C(Nc1ccc2c(c1)OCCO2)c1cccc2nc3ccccc3nc12 | 3.18 µM |
| C=C(CC1([C@@H](NP(=O)(c2ccccc2)c2ccccc2)[C@H]2C[C@@H]2CCCC)CC1)c1ccccc1 | 4.57 µM |
| COc1ccc(N=N/C(=C\O)C(=O)c2cccs2)cc1 | 5.35 µM |
| CC/C(=N/NC(=O)c1ccccc1O)c1c(C)[nH]n(-c2ccccc2)c1=O | 5.25 µM |
| Nc1ccc(N2CCN(Cc3ccccc3Cl)CC2)c(Cl)c1 | 5.59 µM |
| O=C(Nc1ccn(Cc2ccccc2F)n1)c1ccc(COc2ccc(Cl)cc2Cl)o1 | > 19.5 µM (inactive) |
| CCOc1cc(/C=C2/SC(=S)N(Cc3ccccc3)C2=O)ccc1O | 3.76 µM |
| Cc1ccc(NS(=O)(=O)c2ccc(Cl)c(C(=O)Nc3ccccc3-c3nc4ccccc4[nH]3)c2)cc1C | 1.48 µM |
| CC1CCCC(NCC(O)COC(c2ccc(F)cc2)c2ccc(F)cc2)C1C (configuration not stated) | 6.69 µM |
| Nc1nnc(SCC(=O)OCC(=O)NC2CCCCC2)s1 | > 19.5 µM (inactive) |
| Cc1cc(C)c2nc(NNC(=O)c3cc(-c4cccs4)nc4ccccc34)sc2c1 | 2.95 µM |
| COc1ccc(NS(=O)(=O)c2ccc3nc(COc4cccc5ccccc45)[nH]c3c2)cc1 | 4.75 µM |
| COc1ccc(C2NCCc3c2[nH]c2ccccc32)cc1COc1ccc(F)cc1 (configuration not stated) | 7.34 µM |
| O=[N+]([O-])c1ccc(S(=O)(=O)CC(CN2CCCCC2)N2CCCCC2)cc1 (configuration not stated) | 5.37 µM |
| CC(C)Cn1c(O)c(/C=C2\C=NN=C2c2ccccc2)sc1=S | 3.54 µM |
| FC(F)(F)c1cc(CCN2C(=S)NC[C@@H]2CC2CCCCC2)cc(C(F)(F)F)c1 | 7.29 µM |
| O=C1c2ccccc2NC(c2ccc(-c3cccc(Cl)c3)o2)N1O (configuration not stated) | 4.85 µM |
| COC(=O)c1cccc(NC(=O)Nc2ccc(Cl)c(Cl)c2)c1 | 11.4 µM |

| SMILES | AC50 |
| --- | --- |
| O=C(CN(c1cccc(C(F)(F)F)c1)S(=O)(=O)c1ccc(Cl)c([N+](=O)[O-])c1)NCc1ccc(F)cc1 | 3.26 µM |
| Cc1nn(-c2ccccc2)c(N2CCCCC2)c1/C=N/O | 1.69 µM |
| CN(CC(=O)Nc1ccc(Cl)c(Cl)c1)CC(=O)Nc1ccc2c(c1)OCO2 | 17.2 µM |
| CC(=O)Nc1ccc(SCC(=O)c2cc(C)n(Cc3cccs3)c2C)cc1 | 4.66 µM |
| Cc1ccc(/C=C/C(=O)c2cc(Br)ccc2OC(=O)c2ccco2)cc1 | 5.92 µM |
| COc1ccc2cc(/C=N/NC(=O)c3ccc(CN(c4cccc(Cl)c4Cl)S(C)(=O)=O)cc3)c(Cl)nc2c1 | 0.211 µM |
| N=C(N)SCc1nc2ccccc2c(=O)n1-c1ccccc1Cl | 12.5 µM |
| O=[N+]([O-])c1cccnc1N1CCC(c2cc(-c3ccc(Cl)cc3Cl)n[nH]2)CC1 | 4.6 µM |
| Clc1ccc(CSc2nnnn2-c2ccc3c(c2)OCO3)c(Cl)c1 | 10.6 µM |
| CC12CCC(C/C1=N\N=C1\NC(=O)/C(=C\c3ccc(Cl)cc3)S1)C2(C)C (configuration not stated) | 3.25 µM |
| CC(C)(C)c1cc(CSC(=S)NC2CCS(=O)(=O)C2)c(Br)c(C(C)(C)C)c1 (configuration not stated) | 3.8 µM |
| CCOc1ccc(S(=O)(=O)N2CCN=C2c2ccccc2)cc1 | 3.1 µM |
| ClC1=C(Cl)C2(Cl)C3C(Cl)C=CC3C1(Cl)C2(Cl)Cl (configuration not stated) | 6.29 µM |
| Cc1cc(C(=O)NNc2ccc(Cl)cc2)no1 | 1.37 µM |
| COc1ccc(C(=O)C2CCCN(C3CSCCSC3)C2)c(OC)c1 (configuration not stated) | 4.74 µM |
| O=C(NC(=O)N1CCN(c2cccc(Cl)c2)CC1)c1ccc(Cl)cc1 | 0.573 µM |
| CC(C)=CCCC1(C)C=Cc2c(ccc3c2[nH]c2cc(O)c(C)cc23)O1 (configuration not stated) | 3.58 µM |
| Cc1cccc(C)c1NS(=O)(=O)c1ccc(NC(=O)c2ccc(Cl)c([N+](=O)[O-])c2)cc1 | 3.66 µM |
| COc1ccc(-c2sc3ccc(OC)cc3c2C#Cc2ccccn2)cc1 | 5.88 µM |
| O=c1c2c3c(sc2nc(NCCO)n1Cc1ccco1)CCCCC3 | 2.01 µM |
| Oc1ccc(CCNc2ncnc3ccc(Cl)cc23)cc1 | 7.91 µM |
